Test [1] deals with human plasma kallikrein (Homo sapiens, UniProt P03952). Briefly: Determination of the plasma kallikrein activity (fluorogenic peptide substrate, AMC cleavage). The test is classed as biochemical. The conditions noted are these: plasma kallikrein from Kordia 0.6 nM; substrate H-Pro-Phe-Arg-AMC; 30 min at 22° C.; read-out: IC50 [nM] (Table B, plasma kallikrein inhibition). As to the method:
To determine the plasma kallikrein inhibition of the substances according to the invention, a biochemical test system is used which utilizes the reaction of a peptidic plasma kallikrein substrate to determine the enzymatic activity of human plasma kallikrein. Here, plasma kallikrein cleaves from the peptic plasma kallikrein substrate the C-terminal aminomethylcoumarin (AMC), the fluorescence of which is measured. The determinations are carried out in microtitre plates.
Test substances are dissolved in dimethyl sulphoxide and serially diluted in dimethyl sulphoxide (3000 μM to 0.0078 μM; resulting final concentrations in the test: 50 μM to 0.00013 μM). 1 μl of the diluted substance solutions is placed into each of the wells of white microtitre plates from Greiner (384 wells). 20 μl of assay buffer (50 mM Tris/HCl pH 7.4; 100 mM sodium chloride solution; 5 mM of calcium chloride solution; 0.1% of bovine serum albumin) and 20 μl of plasma kallikrein from Kordia (0.6 nM in assay buffer) are then added successively. After 15 min of incubation, the enzyme reaction is started by addition of 20 μl of the substrate H-Pro-Phe-Arg-AMC dissolved in assay buffer (10 μM in assay buffer) from Bachem, the mixture is incubated at room temperature (22° C.) for 30 min and fluorescence is then measured (excitation: 360 nm, emission: 460 nm). The measured emissions of the test batches with test substance are compared to those of control batches without test substance (only dimethyl sulphoxide instead of test substance in dimethyl sulphoxide), and IC50 values are calculated from the concentration/activity relationships.

For test [2], the target named is T1, human factor XIa (Homo sapiens, UniProt P03951).
T1 construct: purchased Kordia
Kind of test: Measurement of FXIa inhibition (fluorogenic peptide substrate, AMC cleavage). Type of test: biochemical. As to conditions: factor XIa from Kordia 0.45 nM; substrate Boc-Glu(OBzl)-Ala-Arg-AMC; 30 min at 22° C. As to the method:
The factor XIa inhibition of the substances according to the invention is determined using a biochemical test system which utilizes the reaction of a peptidic factor XIa substrate to determine the enzymatic activity of human factor XIa. Here, factor XIa cleaves from the peptic factor XIa substrate the C-terminal aminomethylcoumarin (AMC), the fluorescence of which is measured. The determinations are carried out in microtitre plates.
1 μl of the diluted substance solutions is placed into each of the wells of white microtitre plates from Greiner (384 wells). […] After 15 min of incubation, the enzyme reaction is started by addition of 20 μl of the factor XIa substrate Boc-Glu(OBzl)-Ala-Arg-AMC dissolved in assay buffer (10 μM in assay buffer) from Bachem, the mixture is incubated at room temperature (22° C.) for 30 min and fluorescence is then measured (excitation: 360 nm, emission: 460 nm). The measured emissions of the test batches with test substance are compared to those of control batches without test substance (only dimethyl sulphoxide instead of test substance in dimethyl sulphoxide), and IC50 values are calculated from the concentration/activity relationships.

T1 sequence (P03951 388-625 limits assumed): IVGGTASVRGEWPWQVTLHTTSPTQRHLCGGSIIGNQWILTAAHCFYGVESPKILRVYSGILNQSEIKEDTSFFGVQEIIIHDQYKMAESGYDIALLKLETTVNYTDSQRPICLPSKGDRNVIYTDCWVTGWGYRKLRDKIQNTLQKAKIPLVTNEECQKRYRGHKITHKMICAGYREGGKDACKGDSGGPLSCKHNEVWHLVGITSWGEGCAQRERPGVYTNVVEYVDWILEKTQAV
T1 sequence (P03951 19-387 partner limits assumed): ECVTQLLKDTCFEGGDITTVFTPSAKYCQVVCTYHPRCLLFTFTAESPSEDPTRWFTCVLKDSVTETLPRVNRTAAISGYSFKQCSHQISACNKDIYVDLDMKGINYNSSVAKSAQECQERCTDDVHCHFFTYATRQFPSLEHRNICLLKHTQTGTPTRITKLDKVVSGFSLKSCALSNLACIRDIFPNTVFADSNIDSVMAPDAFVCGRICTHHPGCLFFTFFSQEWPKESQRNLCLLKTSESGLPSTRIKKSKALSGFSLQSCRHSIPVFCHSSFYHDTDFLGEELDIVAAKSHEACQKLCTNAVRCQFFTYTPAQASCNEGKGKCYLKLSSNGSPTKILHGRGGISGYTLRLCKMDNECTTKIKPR
human plasma kallikrein, sequence (P03952 391-638 limits assumed): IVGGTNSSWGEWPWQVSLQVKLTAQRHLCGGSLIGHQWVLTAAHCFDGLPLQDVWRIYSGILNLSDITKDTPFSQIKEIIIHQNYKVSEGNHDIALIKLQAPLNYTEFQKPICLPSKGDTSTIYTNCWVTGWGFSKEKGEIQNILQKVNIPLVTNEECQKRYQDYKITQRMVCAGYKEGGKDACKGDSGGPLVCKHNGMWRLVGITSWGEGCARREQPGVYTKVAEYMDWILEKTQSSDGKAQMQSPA
human plasma kallikrein, sequence (P03952 20-390 partner limits assumed): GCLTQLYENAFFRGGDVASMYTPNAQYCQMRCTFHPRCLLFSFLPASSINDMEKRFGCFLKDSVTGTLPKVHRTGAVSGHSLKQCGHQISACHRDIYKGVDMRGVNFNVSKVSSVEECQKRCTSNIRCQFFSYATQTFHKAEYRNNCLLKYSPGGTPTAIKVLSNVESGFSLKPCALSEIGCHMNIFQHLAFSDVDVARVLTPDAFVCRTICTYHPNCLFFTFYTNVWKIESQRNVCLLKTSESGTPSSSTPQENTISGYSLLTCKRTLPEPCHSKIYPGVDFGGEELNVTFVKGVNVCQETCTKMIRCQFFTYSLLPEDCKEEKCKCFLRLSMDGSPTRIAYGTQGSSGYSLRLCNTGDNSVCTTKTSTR

Usually IC50 stands for the midpoint of a concentration-inhibition curve. With `CCOCCC(C(=O)Nc1ccc(C(N)=O)c(F)c1)n1cc(OC)c(-c2cc(Cl)ccc2C#N)cc1=O` (racemic) [Example 18, 4-({2-[4-(5-Chloro-2-cyanophenyl)-5-methoxy-2-oxopyridin-1(2H)-yl]-4-ethoxybutanoyl}amino)-2-fluorobenzamide], the IC50 in test [1] came out at 11 nM; in test [2], 14 nM.
In the case of `COc1cn(C(CCOC(C)C)C(=O)Nc2ccc(C(N)=O)c(F)c2)c(=O)cc1-c1cc(Cl)ccc1C#N` (racemic) [Example 19, 4-({2-[4-(5-Chloro-2-cyanophenyl)-5-methoxy-2-oxopyridin-1(2H)-yl]-4-isopropoxybutanoyl}amino)-2-fluorobenzamide], the values for the concentration for half-maximal inhibition (IC50) in test [1] and in test [2] were 7.4 nM and 12.5 nM, respectively.
For `COc1cn(C(CCOC2CCC2)C(=O)Nc2ccc(C(N)=O)c(F)c2)c(=O)cc1-c1cc(Cl)ccc1C#N` (racemic) [Example 20, 4-({2-[4-(5-Chloro-2-cyanophenyl)-5-methoxy-2-oxopyridin-1(2H)-yl]-4-(cyclobutyloxy)-butanoyl}amino)-2-fluorobenzamide], the IC50 in test [1] is 6.1 nM; in test [2] it was 7.4 nM.
With `COc1cn(C(CCOC(C)(C)C)C(=O)Nc2ccc(C(N)=O)c(F)c2)c(=O)cc1-c1cc(Cl)ccc1C#N` (racemic) [Example 21, 4-({4-tert-Butoxy-2-[4-(5-chloro-2-cyanophenyl)-5-methoxy-2-oxopyridin-1(2H)-yl]butanoyl}amino)-2-fluorobenzamide], the half-maximal inhibitory concentration (IC50) turned out to be 6.8 nM in test [1] and 7.4 nM in test [2].
Consider `COc1cn(C(CCOCC(F)F)C(=O)Nc2ccc(C(N)=O)c(F)c2)c(=O)cc1-c1cc(Cl)ccc1C#N` (racemic) [Example 22, 4-({2-[4-(5-Chloro-2-cyanophenyl)-5-methoxy-2-oxopyridin-1(2H)-yl]-4-(2,2-difluoroethoxy)-butanoyl}amino)-2-fluorobenzamide], for which the 50% inhibitory concentration (IC50) in test [1] was 12 nM; in test [2], 21 nM.
Regarding `COCCC(C(=O)Nc1ccc(C(N)=O)c(F)c1)n1cc(OC)c(-c2cc(OC)ccc2C#N)cc1=O` (racemic) [Example 23, 4-({2-[4-(2-Cyano-5-methoxyphenyl)-5-methoxy-2-oxopyridin-1(2H)-yl]-4-methoxybutanoyl}amino)-2-fluorobenzamide], the half-inhibitory concentration (IC50) was determined as 310 nM in test [1] and 170 nM in test [2].
For the compound `COCCC(C(=O)Nc1ccc(C(N)=O)c(F)c1)n1cc(OC)c(-c2cc(Cl)c(F)cc2C#N)cc1=O` (racemic) [Example 25, 4-({2-[4-(5-Chloro-2-cyano-4-fluorophenyl)-5-methoxy-2-oxopyridin-1(2H)-yl]-4-methoxy-butanoyl}amino)-2-fluorobenzamide], the IC50 in test [1] was 160 nM; in test [2] it was 310 nM.
For the compound `CCC(C(=O)Nc1ccc(C(=O)NC)cc1)n1cc(OC)c(-c2cc(Cl)ccc2C#N)cc1=O` (racemic) [Example 26, 4-({2-[4-(5-chloro-2-cyanophenyl)-5-methoxy-2-oxopyridin-1(2H)-yl]butanoyl}amino)-N-methylbenzamide], the IC50 in test [1] and in test [2] was 20 nM in each case.
As to `CCC(C(=O)Nc1ccc(C(=O)NC)c(Cl)c1)n1cc(OC)c(-c2cc(Cl)ccc2C#N)cc1=O` (racemic) [Example 27, 2-Chloro-4-({2-[4-(5-chloro-2-cyanophenyl)-5-methoxy-2-oxopyridin-1(2H)-yl]butanoyl}amino)-N-methylbenzamide], the IC50 in test [1] came out at 71 nM; in test [2], 50 nM.
Consider `CNC(=O)c1ccc(NC(=O)C(Cc2ccccn2)n2cc(OC)c(-c3cc(Cl)ccc3C#N)cc2=O)cc1F` (racemic) [Example 30, 4-({2-[4-(5-Chloro-2-cyanophenyl)-5-methoxy-2-oxopyridin-1(2H)-yl]-3-(pyridin-2-yl)propanoyl}amino)-2-fluoro-N-methylbenzamide], for which the IC50 was determined as 8.2 nM in test [1] and 9.7 nM in test [2].
Regarding `COCCC(C(=O)Nc1ccc(C(N)=O)c(F)c1)n1cc(OC)c(-c2cc(Cl)ccc2C#N)cc1=O` (racemic) [Example 31, 4-({2-[4-(5-Chloro-2-cyanophenyl)-5-methoxy-2-oxopyridin-1(2H)-yl]-4-methoxybutanoyl}amino)-2-fluorobenzamide], the IC50 in test [1] was 9.7 nM.
For `COc1cn(C(Cc2cc(C)no2)C(=O)Nc2ccc(C(N)=O)c(F)c2)c(=O)cc1-c1cc(Cl)ccc1C#N` (racemic) [Example 32, 4-({2-[4-(5-Chloro-2-cyanophenyl)-5-methoxy-2-oxopyridin-1(2H)-yl]-3-(3-methyl-1,2-oxazol-5-yl)propanoyl}amino)-2-fluorobenzamide], the IC50 stood at 11 nM in test [1] and 13 nM in test [2].
In the same order, the values of `COc1cn(C(Cc2noc(C)n2)C(=O)Nc2ccc(C(N)=O)c(F)c2)c(=O)cc1-c1cc(Cl)ccc1C#N` (racemic) [Example 33, 4-({2-[4-(5-Chloro-2-cyanophenyl)-5-methoxy-2-oxopyridin-1(2H)-yl]-3-(5-methyl-1,2,4-oxadiazol-3-yl)propanoyl}amino)-2-fluorobenzamide] are 10 nM and 15 nM.
As for `COc1cn(C(Cc2ccccn2)C(=O)Nc2ccc(C(N)=O)c(F)c2)c(=O)cc1-c1cc(Cl)ccc1C(F)F` (racemic) [Example 34, 4-{[2-{4-[5-Chloro-2-(difluoromethyl)phenyl]-5-methoxy-2-oxopyridin-1(2H)-yl}-3-(pyridin-2-yl)propanoyl}amino]-2-fluorobenzamide], the IC50 stood at 53 nM in test [1] and 42 nM in test [2].
In the case of `COc1cn(C(Cc2nnc(C)o2)C(=O)Nc2ccc(C(N)=O)c(F)c2)c(=O)cc1-c1cc(Cl)ccc1C#N` (racemic) [Example 35, 4-({2-[4-(5-Chloro-2-cyanophenyl)-5-methoxy-2-oxopyridin-1(2H)-yl]-3-(5-methyl-1,3,4-oxadiazol-2-yl)propanoyl}amino)-2-fluorobenzamide], the concentration for half-maximal inhibition (IC50) in test [1] was 7.3 nM; in test [2], 12 nM.
`COc1cn(C(Cc2ncco2)C(=O)Nc2ccc(C(N)=O)c(F)c2)c(=O)cc1-c1cc(Cl)ccc1C#N` (racemic) [Example 36, 4-({2-[4-(5-Chloro-2-cyanophenyl)-5-methoxy-2-oxopyridin-1(2H)-yl]-3-(1,3-oxazol-2-yl)propanoyl}amino)-2-fluorobenzamide]: the figures for the IC50 in test [1] and in test [2] were 11 nM and 13 nM, respectively.
In the same order, the values of `COc1cn(C(Cc2cc(C)on2)C(=O)Nc2ccc(C(N)=O)c(F)c2)c(=O)cc1-c1cc(Cl)ccc1C#N` (racemic) [Example 37, 4-({2-[4-(5-Chloro-2-cyanophenyl)-5-methoxy-2-oxopyridin-1(2H)-yl]-3-(5-methyl-1,2-oxazol-3-yl)propanoyl}amino)-2-fluorobenzamide] are 6.2 nM and 12 nM.
In the same order, the values of `COc1cn(C(Cc2ccn(C)n2)C(=O)Nc2ccc(C(N)=O)c(F)c2)c(=O)cc1-c1cc(Cl)ccc1C#N` (racemic) [Example 38, 4-({2-[4-(5-Chloro-2-cyanophenyl)-5-methoxy-2-oxopyridin-1(2H)-yl]-3-(1-methyl-1H-pyrazol-3-yl)propanoyl}amino)-2-fluorobenzamide] are 3.6 nM and 6.2 nM.
As to `COc1cn(C(Cc2nnc(C3CC3)o2)C(=O)Nc2ccc(C(N)=O)c(F)c2)c(=O)cc1-c1cc(Cl)ccc1C#N` (racemic) [Example 39, 4-({2-[4-(5-Chloro-2-cyanophenyl)-5-methoxy-2-oxopyridin-1(2H)-yl]-3-(5-cyclopropyl-1,3,4-oxadiazol-2-yl)propanoyl}amino)-2-fluorobenzamide], the IC50 in test [1] was determined as 38 nM; in test [2], 70 nM.
Turning to `COc1cn(C(Cc2cnco2)C(=O)Nc2cc(F)c(C(N)=O)c(F)c2)c(=O)cc1-c1cc(Cl)ccc1C#N` (racemic) [Example 40, 4-({2-[4-(5-Chloro-2-cyanophenyl)-5-methoxy-2-oxopyridin-1(2H)-yl]-3-(1,3-oxazol-5-yl)propanoyl}amino)-2,6-difluorobenzamide], the IC50 in test [1] was determined as 27 nM; in test [2], 34 nM.

(Values after patent US20170298052A1, “SUBSTITUTED OXOPYRIDINE DERIVATIVES” (BAYER PHARMA AKTIENGESELLSCHAFT, priority 2014, published 2017).)
